Measured values: publication PMC11345829, “Discovery of Potent Isoquinolinequinone N-Oxides to Overcome Cancer Multidrug Resistance” (Journal of Medicinal Chemistry, 2024)

Tests used:
A549 = assay: SRB cell growth inhibition assay; assay type: cell-based; conditions: Homo sapiens, 48 h, NSCLC, read-out: GI50 ± SEM A549
Description: (§1) Two pairs of drug-sensitive and multidrug-resistant (MDR) cell lines from human nonsmall cell lung cancer (NSCLC), NCI-H460 and NCI-H460/R, and colorectal cancer, DLD1 and DLD1-TxR, kindly provided by Dr M. Pešić (Belgrade, Serbia), were used to evaluate the growth inhibition potential of the compounds 1, 2, 3, 4, 5, 20, 23, 24, an 25.[76],[77] Additionally, growth inhibition assays were performed with compound 25 on two other NSCLC cell lines, A549 and NCI-H322, obtained from the American Type Culture Collection (ATCC) and the European Collection of Authenticated Cell Cultures, respectively. The A549 cell line was maintained in Dulbecco’s Modified Eagle Medium (DMEM) supplemented with 4.5 g/L Glucose with UltraGlutamine with sodium pyruvate (Lonza, Basel Stücki, Switzerland), enriched with 10% fetal bovine serum (FBS; Biowest, Nuaillé, France). […]
(§2) Cells were seeded at a previously determined optimal cell concentration (5.0 × 10^4 cells/mL for NSCLC cells and the nontumorigenic MRC-5 cell line and 1.0 × 10^5 cells/mL for colorectal cancer cells) and incubated at 37 °C for 24 h. […] Absorbance was measured at 510 nm in a multiplate reader (Synergy Mx, Biotek Instruments Inc., Winooski, Vermont, USA) using the Gen5 software (Biotek Instruments Inc.).

NCI-H322 = assay: SRB cell growth inhibition assay; assay type: cell-based; conditions: Homo sapiens, 48 h, NSCLC, read-out: GI50 ± SEM NCI-H322
Description: as §1, §2

NCI-H460 cells = assay: ROS accumulation, CM-H2DCFDA flow cytometry; assay type: cell-based, human; conditions: 6 h; 0.7, 1 and 5 μM; concentration dependent
Excerpt: To uncover the mechanisms of action of 25, we analyzed the cellular accumulation of ROS by flow cytometry, using a fluorescent marker of ROS, 5-(and-6)-chloromethyl-2′,7′-dichlorodihydrofluorescein diacetate acetyl ester (CM-H2DCFDA). […] Importantly, this effect was concentration dependent.
Figure 6 Effect of the compound 25 on ROS accumulation in NCI-H460 cells. […] Results are presented as mean fluorescence values, normalized to the blank. Data are expressed as mean ± SEM from at least 3 independent experiments.
To study the effect of compound 25 on ROS levels, 5-(and-6)-chloromethyl-2′,7′-dichlorodihydrofluorescein diacetate, acetyl ester (CM-H2DCFDA; Invitrogen) analysis by flow cytometry was performed in the drug-sensitive cells. NCI-H460 cells (1.5 × 10^5/mL) were plated in 6-well plates for 24 h. […] Harvested cells were subsequently washed twice in phosphate-buffered saline (PBS) and the CM-H2DCFDA fluorescence was analyzed in a BD AccuriTM flow cytometer (BD Biosciences, San Jose, California, USA). Mean fluorescence intensity was calculated after correction for autofluorescence.

[1] = test system: NCI-H460, NCI-H460/R, DLD1 and DLD1-TxR spheroids; assay: Spheroid morphology (AnaSP image analysis); assay type: cell-based, human; conditions: 48 h; GI50 and 2 × GI50
Description: Spheroid formation was conducted in 12-series agarose 3D Petri Dish micromolds (MicroTissues Technology, MicroTissues Inc., Sigma-Aldrich). The agarose micromolds were prepared using 1% agarose in a 0.9% NaCl solution and then placed in 12-well plates and equilibrated with RPMI supplemented with 10% FBS for at least 2 h before cell seeding. Cell suspensions corresponding to 500 cells per spheroid of the NSCLC cell lines (NCI-H460 and NCI-H460/R), and 1000 cells per spheroid of the colorectal cancer cell lines (DLD1 and DLD1-TxR) were seeded in the corresponding micromolds. The choice of cell seeding concentration was based on a previous optimization assay (data not shown), ensuring that at the end of the assay the spheroids would have a size of around 400 μm. A 20 min incubation period was used for cells to settle into the micromolds and additional medium was finally added to the wells. Spheroid formation was monitored with the Leica DMi1 microscope. […] At the end of the treatment, images from at least 8 different spheroids per condition were captured on the Leica Dmi1 microscope, and posteriorly analyzed with the automated open-source software AnaSP.[82] Spheroid parameters, such as equivalent diameter, circularity, and compactness, were calculated.
S3.6 Effect of 25 on spheroids from NSCLC and colorectal cancer (Figure S67) […]
2GI50 concentrations previously determined in a 2D setting. […]

COC(=O)c1c2c(c[n+]([O-])c1C)C(=O)C=C(NCc1ccccc1)C2=O [Compound 25]
GI50 (A549): 220 ± 20 nM | GI50 (NCI-H322): 450 ± 60 nM | ROS accumulation (fluorescence intensity) (NCI-H460 cells): statistically significant increase on fluorescence intensity | spheroid morphological properties (diameter, compactness, circularity) [1]: did not display statistical differences in the AnaSP-calculated morphological properties
